Data published in patent US20120178738A1, “DIBENZO [B,F] [1,4]OXAZAPINE COMPOUNDS” (ARYX THERAPEUTICS, INC., priority 2007, published 2012).
Like-named read-outs stand apart in the source and are kept apart here.

Columns and labels:
human H1 receptors = target: T1, human H1 receptors (Homo sapiens, UniProt P35367); assay: hH1 receptor radioligand binding ([3H]Pyrilamine); details: pKi reported on a scale of 1 through 5
T1 construct: expressed in transfected cells; host or cells: Chinese hamster ovary cells (membranes)
Protocol: (§1) Consistent with standard competition radioligand binding assays, the methodology was based on displacement of radioligand from tissues (or cell lines) bearing the receptor of interest (Cheng, Y. and Prusoff, W. H. (1973). Biochem. Pharmacol. 22, 3099-3108). The measurements were based on the binding of a single concentration of radiolabeled ligand in the presence of various concentrations of unlabeled ligand.
(§2) Tissues (or cellular plasma membrane fractions) were incubated in the presence of radioligand at equilibrium and in the presence of a range of concentrations of the test compounds (which were non-radiolabeled), and the displaced radioligand was separated from the membranes by filtration. Nonspecific binding was assessed by measuring displacement of the radioligand in the presence of a compound known to block binding of the radioligand to the receptor. Finally, the concentration-response relationship for radioligand displacement (corrected for non-specific binding) was used to assess binding of the test compound to the receptor.

[1] = target: T2, human D2s dopamine receptors (Homo sapiens, UniProt P14416); assay: hD2S receptor radioligand binding ([3H]spiperone); details: pKi reported on a scale of 1 through 5
T2 construct: expressed in transfected cells; host or cells: Chinese hamster ovary cells (membranes)
Protocol: as §1, §2

human 5HT1A receptors = target: T3, human 5HT1A receptors (Homo sapiens, UniProt P08908); assay: h5-HT1A receptor radioligand binding ([3H]8OH-DPAT); details: pKi reported on a scale of 1 through 5
T3 construct: expressed in transfected cells; host or cells: Chinese hamster ovary cells (membranes)
T3 sequence (P08908 1-422): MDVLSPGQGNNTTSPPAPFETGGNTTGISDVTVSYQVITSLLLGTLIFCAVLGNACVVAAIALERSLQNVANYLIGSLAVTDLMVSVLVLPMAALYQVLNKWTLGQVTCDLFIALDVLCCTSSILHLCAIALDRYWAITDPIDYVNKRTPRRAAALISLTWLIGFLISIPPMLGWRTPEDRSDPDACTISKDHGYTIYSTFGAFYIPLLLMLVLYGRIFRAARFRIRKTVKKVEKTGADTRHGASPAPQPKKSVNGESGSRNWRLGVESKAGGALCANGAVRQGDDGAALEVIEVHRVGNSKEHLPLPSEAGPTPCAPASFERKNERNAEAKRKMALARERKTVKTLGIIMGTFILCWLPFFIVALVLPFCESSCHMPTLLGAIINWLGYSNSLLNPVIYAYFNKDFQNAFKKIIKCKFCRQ
Protocol: as §1, §2

human M1 receptors = target: T4, human M1 receptors (Homo sapiens, UniProt P11229); assay: hM1 receptor radioligand binding ([3H]NMS); details: pKi reported on a scale of 1 through 5
T4 construct: expressed in transfected cells; host or cells: Chinese hamster ovary cells (membranes)
T4 sequence (P11229 1-460): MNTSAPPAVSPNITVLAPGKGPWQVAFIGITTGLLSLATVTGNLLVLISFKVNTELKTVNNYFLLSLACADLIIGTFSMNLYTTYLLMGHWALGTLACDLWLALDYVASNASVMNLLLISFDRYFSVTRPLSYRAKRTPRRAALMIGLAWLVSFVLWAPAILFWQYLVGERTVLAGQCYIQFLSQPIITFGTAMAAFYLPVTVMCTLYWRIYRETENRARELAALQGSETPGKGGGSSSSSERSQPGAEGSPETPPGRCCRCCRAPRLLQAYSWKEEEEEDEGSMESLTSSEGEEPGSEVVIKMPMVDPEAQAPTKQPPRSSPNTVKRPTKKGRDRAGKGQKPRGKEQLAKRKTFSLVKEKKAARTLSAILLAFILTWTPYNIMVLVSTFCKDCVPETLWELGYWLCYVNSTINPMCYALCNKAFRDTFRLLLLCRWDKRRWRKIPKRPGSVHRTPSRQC
Protocol: as §1, §2

5-HT2A receptor = target: T5, 5-HT2A receptor (Rattus norvegicus, UniProt P14842); assay: cell-based; details: read-out: 5HT2A (pKb) (converted)
T5 construct: Eight strips of tissue (0.5 cm long) were cut. and were mounted in 10 ml organ baths; tissue Charles River Laboratories; host or cells: rat aorta strips, endothelium removed
Protocol: The rat aorta (approximately 7 cm) was isolated and removed from the animal (male Sprague Dawley rat, Charles River Laboratories, Hollister, Calif.). The endothelium was removed mechanically. Eight strips of tissue (0.5 cm long) were cut. and were mounted in 10 ml organ baths kept at 37° C. with Krebs solution (composition in mM: NaCl (118.2), KCl (4.6), CaCl2 (2.5), MgSO4 (1.2), KH2PO4 (1.2), NaHCO3 (24.8) and dextrose (10.0)) that was constantly aerated with carbogen gas (95% O2/5% CO2) to obtain a pH of 7.4. The tissues were subjected to a resting tension of 2 g (3 times, 15 minutes apart, equilibrated in Krebs solution). The tissues were then washed 15 minutes later. Ten minutes later, the tissues were then exposed to 0.1 μM phenylephrine. At the maximal effect, 1 μM acetylcholine was added to confirm the absence of endothelium and then washed twice, 2 minutes apart.
Contractions were recorded as changes in tension from baseline and expressed as a percentage of the maximum response of the agonist (5-HT) concentration-effect curve. Agonist concentration-response curves were fitted using a nonlinear iterative fitting program (GraphPad Prism) using the relationship of Parker and Waud (Parker, R. B. and Waud, D. R. (1971). Pharmacological estimation of drug-receptor dissociation constants. Statistical evaluation. I. Agonists. J. Pharmacol. Exp. Ther., 177, 1-12). Agonist potency was expressed as EC50 (molar concentration of agonist producing 50% of the maximum response). Concentration-ratios (CRs) were determined from EC50 values in the presence and absence of antagonist and antagonist affinity estimates (pKB and pA2 values) were determined. All data are expressed as mean±s.e. mean.

human 5HT2C receptors = target: T6, human 5HT2C receptors (Homo sapiens, UniProt P28335); assay: h5-HT2C receptor radioligand binding ([3H]Mesulergine); details: pKi reported on a scale of 1 through 5
T6 construct: expressed in transfected cells; host or cells: human embryo kidney cells (membranes)
T6 sequence (P28335 33-458): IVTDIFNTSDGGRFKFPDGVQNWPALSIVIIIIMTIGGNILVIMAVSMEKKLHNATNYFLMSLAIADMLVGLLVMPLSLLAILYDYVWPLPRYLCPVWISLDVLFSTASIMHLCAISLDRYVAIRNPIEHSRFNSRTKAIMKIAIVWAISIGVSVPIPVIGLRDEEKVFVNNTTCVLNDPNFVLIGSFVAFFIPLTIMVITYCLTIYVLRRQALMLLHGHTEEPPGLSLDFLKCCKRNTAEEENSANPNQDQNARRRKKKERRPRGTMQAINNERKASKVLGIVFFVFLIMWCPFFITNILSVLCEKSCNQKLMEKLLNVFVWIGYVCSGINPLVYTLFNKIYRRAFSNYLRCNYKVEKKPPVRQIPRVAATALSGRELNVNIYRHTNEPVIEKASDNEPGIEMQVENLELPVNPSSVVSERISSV
Protocol: The measurements were based on the binding of a single concentration of radiolabeled ligand in the presence of various concentrations of unlabeled ligand.
as §2

[2] = pKb reported on a scale of 1 through 5

T1 sequence (P35367 whole entry): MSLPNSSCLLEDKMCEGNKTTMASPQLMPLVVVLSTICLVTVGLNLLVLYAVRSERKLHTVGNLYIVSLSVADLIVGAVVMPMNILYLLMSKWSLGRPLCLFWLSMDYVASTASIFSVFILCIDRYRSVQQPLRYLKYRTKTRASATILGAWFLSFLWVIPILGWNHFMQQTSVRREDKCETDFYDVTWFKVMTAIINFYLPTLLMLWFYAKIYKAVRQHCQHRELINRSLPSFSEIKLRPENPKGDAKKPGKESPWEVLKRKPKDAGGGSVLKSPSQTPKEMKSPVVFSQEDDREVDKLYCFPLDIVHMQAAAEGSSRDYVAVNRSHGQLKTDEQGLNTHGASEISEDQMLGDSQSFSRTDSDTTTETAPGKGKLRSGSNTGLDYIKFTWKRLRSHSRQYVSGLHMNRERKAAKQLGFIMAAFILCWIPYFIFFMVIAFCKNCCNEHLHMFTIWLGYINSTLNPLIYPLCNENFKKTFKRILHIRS
T2 sequence (P14416 1-414 isoform P14416-2): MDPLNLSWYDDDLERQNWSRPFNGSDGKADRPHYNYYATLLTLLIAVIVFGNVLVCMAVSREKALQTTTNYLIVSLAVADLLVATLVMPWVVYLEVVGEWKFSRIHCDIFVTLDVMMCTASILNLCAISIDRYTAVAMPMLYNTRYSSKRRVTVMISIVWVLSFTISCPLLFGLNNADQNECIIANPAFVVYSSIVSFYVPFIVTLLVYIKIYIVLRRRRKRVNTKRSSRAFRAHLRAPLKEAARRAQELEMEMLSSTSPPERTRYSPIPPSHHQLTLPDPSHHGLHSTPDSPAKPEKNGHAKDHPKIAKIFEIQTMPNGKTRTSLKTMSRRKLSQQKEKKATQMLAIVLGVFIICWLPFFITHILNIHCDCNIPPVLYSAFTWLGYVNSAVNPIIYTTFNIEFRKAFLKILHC
T5 sequence (P14842 whole entry): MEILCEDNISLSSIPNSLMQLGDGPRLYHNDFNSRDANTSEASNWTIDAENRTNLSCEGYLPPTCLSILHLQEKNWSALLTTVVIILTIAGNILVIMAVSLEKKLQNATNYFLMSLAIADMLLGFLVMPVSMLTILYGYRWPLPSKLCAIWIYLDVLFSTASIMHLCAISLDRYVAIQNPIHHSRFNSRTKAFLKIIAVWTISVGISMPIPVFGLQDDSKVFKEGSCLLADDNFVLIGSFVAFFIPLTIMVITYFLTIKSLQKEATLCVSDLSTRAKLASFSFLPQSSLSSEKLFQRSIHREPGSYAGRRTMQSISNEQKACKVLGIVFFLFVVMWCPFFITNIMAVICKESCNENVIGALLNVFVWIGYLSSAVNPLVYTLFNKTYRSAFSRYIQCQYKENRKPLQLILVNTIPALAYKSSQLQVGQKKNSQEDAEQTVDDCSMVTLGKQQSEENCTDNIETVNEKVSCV

SMILES | Ki (human H1 receptors) [µM] | Ki [1] [µM] | Ki (human 5HT1A receptors) [µM] | Ki (human M1 receptors) [µM] | Kb (5-HT2A receptor) [µM] | Kb (5-HT2A receptor; [2]) [µM] | Ki (human 5HT2C receptors) [µM]
CN1CCN(C2=Nc3cc(Cl)ccc3Oc3ccccc32)C[C@@H]1CC(=O)NC(CF)CF [EV, (S,E)-2-(4-(8-chlorodibenzo[b,f][1,4]oxazepin-11-yl)-1-methylpiperazin-2-yl)-N-(1,3-difluoropropan-2-yl)acetamide] | 0.01 to 0.0977 | 2.51 to 9.77 | 1 to 9.77 | 5.01 to 9.77 | 0.0316 to 0.0977 | – | –
COC(=O)C[C@H]1CN(C2=Nc3cc(Cl)ccc3Oc3ccccc32)CCN1CC1CC1 [ET, (S,E)-methyl 2-(4-(8-chlorodibenzo[b,f][1,4]oxazepin-11-yl)-1-(cyclopropylmethyl)piperazin-2-yl)acetate] | 0.1 to 0.977 | 0.631 to 2.45 | 1 to 9.77 | 2.51 to 4.9 | – | > 0.1 | –
CN1CCN(C2=Nc3cc(Cl)ccc3Oc3ccccc32)CC1CC(=O)O (centres unmarked) [DO, (E)-2-(4-(8-chlorodibenzo[b,f][1,4]oxazepin-11-yl)-1-methylpiperazin-2-yl)acetic acid] | 0.01 to 0.0977 | > 10 | 1 to 9.77 | – | – | – | 0.1 to 0.977
COC(=O)c1ccc(OCC2CN(C3=Nc4cc(Cl)ccc4Oc4ccccc43)CCN2)cc1 (centres unmarked) [G, (E)-methyl 4-((4-(8-chlorodibenzo[b,f][1,4]oxazepin-11-yl)piperazin-2-yl)methoxy)benzoate] | 1 to 9.77 | 2.51 to 9.77 | – | 5.01 to 9.77 | 0.01 to 0.0309 | – | –
COC(=O)COCC1CN(C2=Nc3ccccc3Oc3ccc(Cl)cc32)CCN1C (centres unmarked) [DM, (E)-methyl 2-((4-(2-chlorodibenzo[b,f][1,4]oxazepin-11-yl)-1-methylpiperazin-2-yl)methoxy)acetate] | – | > 10 | – | – | 0.01 to 0.0309 | – | –
O=C(C[C@H]1CN(C2=Nc3cc(Cl)ccc3Oc3ccccc32)CCN1)N1CC[C@@H](O)C1 [GE, 2-((S)-4-((E)-8-chlorodibenzo[b,f][1,4]oxazepin-11-yl)piperazin-2-yl)-1-((R)-3-hydroxypyrrolidin-1-yl)ethanone] | – | 2.51 to 9.77 | 0.1 to 0.977 | 2.51 to 4.9 | 0.01 to 0.0309 | – | –
CC[C@H](C)OC(=O)C[C@H]1CN(C2=Nc3cc(Cl)ccc3Oc3ccccc32)CCN1 [EP, sec-butyl 2-((S)-4-((E)-8-chlorodibenzo[b,f][1,4]oxazepin-11-yl)piperazin-2-yl)acetate] | 0.1 to 0.977 | 0.158 to 0.617 | 0.01 to 0.0977 | 5.01 to 9.77 | 0.01 to 0.0309 | – | –
CN1CCN(C2=Nc3cc(Cl)ccc3Oc3ccccc32)C[C@@H]1CC(=O)N(CC(F)(F)F)CC(F)(F)F [EW, (S,E)-2-(4-(8-chlorodibenzo[b,f][1,4]oxazepin-11-yl)-1-methylpiperazin-2-yl)-N,N-bis(2,2,2-trifluoroethyl)acetamide] | 0.1 to 0.977 | > 10 | 1 to 9.77 | 5.01 to 9.77 | – | > 0.1 | 1 to 9.77
CC(C)CNC(=O)CC1CN(C2=Nc3cc(Cl)ccc3Oc3ccccc32)CCN1 (centres unmarked) [B, (E)-2-(4-(8-chlorodibenzo[b,f][1,4]oxazepin-11-yl)piperazin-2-yl)-N-isobutylacetamide] | – | 0.158 to 0.617 | – | > 10 | 0.0316 to 0.0977 | – | –
CN1CC[C@@H](OC(=O)C[C@H]2CN(C3=Nc4cc(Cl)ccc4Oc4ccccc43)CCN2C)C1 [ES, (R)-1-methylpyrrolidin-3-yl 2-((S)-4-((E)-8-chlorodibenzo[b,f][1,4]oxazepin-11-yl)-1-methylpiperazin-2-yl)acetate] | 0.01 to 0.0977 | > 10 | 1 to 9.77 | > 10 | – | – | –
CN1CCN(C2=Nc3cc(Cl)ccc3Oc3ccccc32)C[C@@H]1CC(=O)OCCCF [EX, (S,E)-3-fluoropropyl 2-(4-(8-chlorodibenzo[b,f][1,4]oxazepin-11-yl)-1-methylpiperazin-2-yl)acetate] | 0.01 to 0.0977 | 2.51 to 9.77 | 1 to 9.77 | 5.01 to 9.77 | – | – | 0.1 to 0.977
CCOC(=O)c1ccc(CCC2CN(C3=Nc4cc(Cl)ccc4Oc4ccccc43)CCN2)cc1 (centres unmarked) [Compound F, (E)-ethyl 4-(2-(4-(8-chlorodibenzo[b,f][1,4]oxazepin-11-yl)piperazin-2-yl)ethyl)benzoate] | 1 to 9.77 | 0.631 to 2.45 | – | 1.26 to 2.45 | – | > 0.1 | –
CCOC(=O)CC1CN(C2=Nc3ccccc3Oc3ccc(Cl)cc32)CCN1 (single isomer, unassigned) [Compound C, (E)-ethyl 2-(4-(2-chlorodibenzo[b,f][1,4]oxazepin-11-yl)piperazin-2-yl)acetate] | – | 2.51 to 9.77 | – | > 10 | 0.0316 to 0.0977 | – | –
COC(=O)c1ccc(OC[C@H]2CN(C3=Nc4ccccc4Oc4ccc(Cl)cc43)CCN2)cc1 [D, (R,E)-methyl 4-((4-(2-chlorodibenzo[b,f][1,4]oxazepin-11-yl)piperazin-2-yl)methoxy)benzoate] | 0.1 to 0.977 | 0.631 to 2.45 | – | > 10 | 0.0316 to 0.0977 | – | –
COCCNC(=O)C[C@H]1CN(C2=Nc3cc(Cl)ccc3Oc3ccccc32)CCN1CCO [GI, (S,E)-2-(4-(8-chlorodibenzo[b,f][1,4]oxazepin-11-yl)-1-(2-hydroxyethyl)piperazin-2-yl)-N-(2-methoxyethyl)acetamide] | – | > 10 | 1 to 9.77 | > 10 | 0.0316 to 0.0977 | – | –
